Measurements as given in US5658883A, “Biologically active TGF-β1 peptides” (Celtrix Pharmaceuticals, Inc., priority 1995, dated 1997).
Read-outs that look alike come from different tables or passages of the source. Blank lines part the entries; values can stand above or below the molecule they belong to. Bridge positions count the residues as written; N and C are the ends. Ends that are not written are not given here. Peptide text beside a SMILES is read from it. I, II: the chains in the order shown.

Legend:
TGF-β receptor [1] = molecular target: TGF-β receptor
Method: (§1) Rat muscle myoblasts (L6, American Type Culture Collection) were plated in 6-well culture plates and cultured in DMEM supplemented with 100 units/ml penicillin, 100 μg/ml streptomycin, 2 mM L-glutamine, 10% FBS until the cells were 70-90% confluent. Medium was aspirated from the wells; and 1 ml of ice cold 20 mM glycine, 135 mM NaCl, pH 3.0 was added to each well for 2 min. The buffer was aspirated and each well was rinsed 2 times with 1 ml of DMEM, 25 mM Hepes, pH 7.4, 0.1% BSA. […] Radiolabeled TGF-β samples (500 μl ) either without unlabeled TGF-β or with excess unlabeled TGF-β (20-25 nM) were prepared and added to other wells. After 1 hr incubation at room temperature, each well was rinsed 2 times with 1 ml of Hank's balanced saline solution, 0.1% BSA. To each well, 500 μl of 1% Triton X-100, 10% glycerol, 20 mM Hepes, pH 7.4, 0.01% BSA was added and incubated at 37° C. with rotation for 30 min to lyse the cells. Samples were transferred into gamma-counting vials and counted for 1 min each.

TGF-β receptor [2] = conditions: for competing against the binding of 125I-TGF-β1: at concentrations of up to 30 μM
Method: as §1

[3] = tested on: Mink lung epithelial cells (Mv1Lu CCL64); assay: Mink lung epithelial cell proliferation inhibition assay; type: cell-based; conditions: for ED50 (half-maximal inhibition of cell proliferation): 4 days, acid phosphatase readout
Method: TGF-β is known to inhibit proliferation of mink lung epithelial cells. The mink lung epithelial cell assay was thus used to test the ability of the peptides to mimic the biological activity of TGF-β. Mink lung epithelial cells (ATCC, Rockville, Md., Mv1Lu CCL64) were plated at 0.5-1.0×10^6 cells/plate in 100 mm culture plates and grown in Eagle's minimal essential medium (MEM) supplemented with 50 units/ml penicillin, 50 μg/ml streptomycin, nonessential amino acids, L-glutamine, and 10% fetal bovine serum (FBS). Cells were passaged while the cell density was subconfluent. Cells were detached with trypsin, collected by centrifugation at 800×g for 2 min, and resuspended in the culture medium at 20,000 cells/ml. The cells were plated in 96-well microtiter plates at 1000 cells (50 μl)/well. Peptides TGF-β116-31, TGF-β116-47, TGF-β216-31, TGF-β216-47 in monomeric and dimeric forms were lyophilized in the presence of sterile bovine serum albumin (BSA) carrier. Samples (50 μl) of the peptides were dissolved in the cell culture medium and added to the wells in triplicate. Recombinant human TGF-β2 was used as the standard. The plates were incubated under a 5% CO2 /95% (V/V) air atmosphere at 37° C. for 4 days. The number of cells/well in this assay is proportional to the activity of the constitutively expressed enzyme, acid phosphatase. To measure acid phosphatase activity, the wells were rinsed with phosphate-buffered saline (PBS), filled with 100 μl of 0.1M sodium acetate, pH 5.5/0.1% Triton X-100/100 mM p-nitrophenyl phosphate, and the plates were incubated at 37° C. for 2 hr. Ten μl of 1.0N NaOH was added to each well, and after 20 min at room temperature, the absorbance at 405 nm was measured.

murine thymocytes = assay: Inhibition of murine thymocyte proliferation (3H-thymidine incorporation); type: cell-based, C3H/HeJ mice
Method: In order to determine the effect of the peptides on proliferation of cell types other than mink lung epithelial cells, murine thymocytes were exposed to the peptides. Proliferation was measured by determining the amount of ^3 H-thymidine incorporated into the thymocyte DNA in response to the peptides. The cell culture assay was performed as described by Ellingsworth et al., Cell. Immunol., 114:41-54 (1988). Single-cell suspensions of thymocytes were prepared from 4 to 8 week old C3H/HeJ mice and the cells were suspended in Eagle's MEM supplemented with 5% fetal calf serum (FCS), 100 units/ml penicillin, 100 μg/ml streptomycin, 2 mM L-glutamine and 50 μM β-mercaptoethanol to 6.66×10^6 cells/ml. The thymocytes were plated into 96-well microtiter plates at 10^6 cells/well (150 μl). The cells were activated with 1.0 μg/ml of phytohemagglutinin and 8 units/ml of interleukin-1 (IL-1) (Boehringer Mannheim, Indianapolis, Ind.). […] The cells were incubated at 37° C. for 72 hr in a humidified incubator in 5% CO2 -95% air atmosphere. The cells were pulsed with 0.5 μCi/well of ^3 H-thymidine 24 hours prior to cell harvest. The thymocytes were harvested onto glass fiber filters and dried. The amount of ^3 H-thymidine incorporation was determined by liquid scintillation counting method.

tumor cell proliferation = conditions: in vitro assays, generally observed; cited from earlier work
[4] = 25 pM 125I-TGF-β2, L6 cells, 1 hr room temperature
[5] = PHA and IL-1 activated thymocytes, 72 hr

ED50 (competition against binding of 125I-TGF-β2) (TGF-β receptor [1]): 30000 nM
Molecule: CC[C@H](C)[C@H](NC(=O)[C@H](Cc1ccc(O)cc1)NC(=O)[C@H](CC(C)C)NC(=O)[C@@H]1CCCN1C(=O)[C@H](CCCNC(=N)N)NC(=O)[C@H](CC(C)C)NC(=O)[C@@H](N)CSSC[C@H](N)C(=O)N[C@@H](CC(C)C)C(=O)N[C@@H](CCCNC(=N)N)C(=O)N1CCC[C@H]1C(=O)N[C@@H](CC(C)C)C(=O)N[C@@H](Cc1ccc(O)cc1)C(=O)N[C@H](C(=O)N[C@@H](CC(=O)O)C(=O)N[C@@H](Cc1ccccc1)C(=O)N[C@@H](CCCCN)C(=O)N[C@@H](CCCNC(=N)N)C(=O)N[C@@H](CC(=O)O)C(=O)N[C@@H](CC(C)C)C(=O)NCC(=O)N[C@@H](Cc1c[nH]c2ccccc12)C(=O)N[C@@H](CCCCN)C(=O)O)[C@@H](C)CC)C(=O)N[C@@H](CC(=O)O)C(=O)N[C@@H](Cc1ccccc1)C(=O)N[C@@H](CCCCN)C(=O)N[C@@H](CCCNC(=N)N)C(=O)N[C@@H](CC(=O)O)C(=O)N[C@@H](CC(C)C)C(=O)NCC(=O)N[C@@H](Cc1c[nH]c2ccccc12)C(=O)N[C@@H](CCCCN)C(=O)O [TGF-β216-31 dimer] (I: H-CLRPLYIDFKRDLGWK-OH / II: H-CLRPLYIDFKRDLGWK-OH; disulfide I:1-II:1)

ED50 (competition against binding of 125I-TGF-β2), in words (TGF-β receptor [1]; 25 pM 125I-TGF-β2, L6 cells): inactive
Molecule: CLRPLYIDFKRDLGWK [TGF-β216-31]
ED50 / activity in words [3]: inactive
activity in thymocyte proliferation assay (murine thymocytes): inactive

ED50 (competition against binding of 125I-TGF-β2) (TGF-β receptor [1]; [4]): 30000 nM
competing against the binding of 125I-TGF-β2 (TGF-β receptor [1]; at concentrations of up to 30 μM): either inactive or weakly active
Molecule: CLRPLYIDFKRDLGWKWIHEPKGYNANFCAGA [TGF-β216-47 monomer]
ED50 / activity in words [3]: not active

ED50 (competition against binding of 125I-TGF-β2) (TGF-β receptor [1]; [4]): 3000 nM
Kd (TGF-β receptor [1]; read-out: apparent dissociation constant, estimated from competitive binding data, 125I-TGF-β2): ~3000 nM
B2: CLRPLYIDFKRDLGWKWIHEPKGYNANFCAGA [TGF-β216-47 dimer] (peptide)
chain 1: CLRPLYIDFKRDLGWKWIHEPKGYNANFCAGA
chain 2: B2 chain 1
modifications: disulfide (positions not given here); also: disulfide-bonded homodimer, Cys pairing not given here
ED50 (half-maximal inhibition of cell proliferation) [3]: 4 to 14 nM
fold more activity than dimerized TGF-β116-47 ([3]; from ED50): 11-38 fold
ED50 (inhibition of thymocyte proliferation) (murine thymocytes; [5]): 57 nM

Continued, molecule first:

Molecule: CC[C@H](C)[C@H](NC(=O)[C@H](Cc1ccc(O)cc1)NC(=O)[C@H](CC(C)C)NC(=O)[C@H](CCC(N)=O)NC(=O)[C@H](CCCNC(=N)N)NC(=O)[C@@H](NC(=O)[C@@H](N)CSSC[C@H](N)C(=O)N[C@H](C(=O)N[C@@H](CCCNC(=N)N)C(=O)N[C@@H](CCC(N)=O)C(=O)N[C@@H](CC(C)C)C(=O)N[C@@H](Cc1ccc(O)cc1)C(=O)N[C@H](C(=O)N[C@@H](CC(=O)O)C(=O)N[C@@H](Cc1ccccc1)C(=O)N[C@@H](CCCNC(=N)N)C(=O)N[C@@H](CCCCN)C(=O)N[C@@H](CC(=O)O)C(=O)N[C@@H](CC(C)C)C(=O)NCC(=O)N[C@@H](Cc1c[nH]c2ccccc12)C(=O)N[C@@H](CCCCN)C(=O)O)[C@@H](C)CC)C(C)C)C(C)C)C(=O)N[C@@H](CC(=O)O)C(=O)N[C@@H](Cc1ccccc1)C(=O)N[C@@H](CCCNC(=N)N)C(=O)N[C@@H](CCCCN)C(=O)N[C@@H](CC(=O)O)C(=O)N[C@@H](CC(C)C)C(=O)NCC(=O)N[C@@H](Cc1c[nH]c2ccccc12)C(=O)N[C@@H](CCCCN)C(=O)O [TGF-β116-31 dimer] (I: H-CVRQLYIDFRKDLGWK-OH / II: H-CVRQLYIDFRKDLGWK-OH; disulfide I:1-II:1)
ED50 (competition against binding of 125I-TGF-β2) (TGF-β receptor [1]): 10000 to 15000 nM
ED50 (competition against binding of 125I-TGF-β1) (TGF-β receptor [2]): 10000 to 15000 nM

Molecule: CVRQLYIDFRKDLGWKWIHEPKGYHANFCLGP [TGF-β116-47 monomer]
ED50 / activity in words [3]: some activity
ED50 (half-maximal inhibition of cell proliferation) [3]: 1000 nM
ED50 (competition against binding of 125I-TGF-β1), in words (TGF-β receptor [2]; 25 pM 125I-TGF-β1, L6 cells): not active
competing against the binding of 125I-TGF-β1 (TGF-β receptor [2]): either inactive or weakly active

Molecule: CVRQLYIDFRKDLGWKWIHEPKGYHANFCLGP [TGF-β116-47 trimer] (cysteine pairing not given here; also: trimer)
ED50 (half-maximal inhibition of cell proliferation) [3]: 32.7 nM

Molecule: TGF-β
concentration at which saturation is achieved (tumor cell proliferation): 10 ng/mL
concentration for 50% inhibition of tumor cell proliferation (tumor cell proliferation): ~0.2 ng/mL

Molecule: TGF-β1: full length transforming growth factor β1
ED50 (competition against binding of 125I-TGF-β1) (TGF-β receptor [2]; 25 pM 125I-TGF-β1, L6 cells, 1 hr room temperature): 0.01 to 0.03 nM
Kd (TGF-β receptor [2]; read-out: apparent dissociation constant, estimated from competitive binding data, 125I-TGF-β1): 0.01 to 0.03 nM

Molecule: TGF-β2: full length transforming growth factor β2, used as the standard
ED50 (inhibition of 3H-thymidine incorporation) (murine thymocytes; [5]): approximately 4 pM

B1: CVRQLYIDFRKDLGWKWIHEPKGYHANFCLGP [TGF-β116-47 dimer] (peptide)
chain 1: CVRQLYIDFRKDLGWKWIHEPKGYHANFCLGP
chain 2: B1 chain 1
modifications: disulfide (positions not given here); also: disulfide-bonded homodimer, Cys pairing not given here
ED50 (competition against binding of 125I-TGF-β1), in words (TGF-β receptor [2]; 25 pM 125I-TGF-β1, L6 cells): not active
competing against the binding of 125I-TGF-β1 (TGF-β receptor [2]): either inactive or weakly active
